Laboratory results published in article PMC11822212, “High-throughput screening identifies Aurora kinase B as a critical therapeutic target for Merkel cell carcinoma” (Nature Communications, 2025).
Several values for one entry are separate records, joined by “and”; a condition that tells them apart may be missing. Equal values may be shown once. Read-outs that look alike come from different tables or passages of the source.

Columns and labels:
[1] = tested on: UISO cells (VN-MCC); assay: qHTS cell viability (CellTiter-Glo, 72 h; primary and follow-up small molecule screen); type: cell-based, human
[2] = tested on: MCC13 cells (VN-MCC); assay: as above; type: cell-based, human
[3] = tested on: VN-MCC cell lines (MCC13, MCC26, UISO); assay: qHTS cell viability, VN-MCC cell lines as a group (mean AUC, VN.MCC.avg); type: cell-based, human
[4] = tested on: six MCC cell lines and four control cell lines; assay: qHTS cell viability, all 10 cell lines screened; type: cell-based
[5] = tested on: HACAT cells; assay: qHTS cell viability (CellTiter-Glo, 72 h; primary screen), control cell line; type: cell-based, human
[6] = tested on: MCC cell lines (WAGA, MKL-1, MKL-2, MCC13, MCC26, UISO); assay: qHTS cell viability, all six MCC cell lines as a group (mean AUC, MCC.avg); type: cell-based, human
[7] = tested on: control cell lines (HACAT, HEK293T, CRL-7250, NIH-3T3); assay: qHTS cell viability, control cell lines as a group (mean AUC, Control.avg); type: cell-based
[8] = tested on: MKL-1 cells (VP-MCC); assay: qHTS cell viability (CellTiter-Glo, 72 h; primary and follow-up small molecule screen); type: cell-based, human
[9] = tested on: WAGA cells (VP-MCC); assay: as above; type: cell-based, human
[10] = tested on: MKL-2 cells (VP-MCC); assay: as above; type: cell-based, human
[11] = tested on: HEK293T cells; assay: qHTS cell viability (CellTiter-Glo, 72 h; primary screen), control cell line; type: cell-based, human
[12] = tested on: MCC26 cells (VN-MCC); assay: qHTS cell viability (CellTiter-Glo, 72 h; primary and follow-up small molecule screen); type: cell-based, human
[13] = tested on: NIH-3T3 cells; assay: qHTS cell viability (CellTiter-Glo, 72 h; primary screen), control cell line; type: cell-based, mouse
[14] = tested on: VP-MCC cell lines (WAGA, MKL-1, MKL-2); assay: qHTS cell viability, VP-MCC cell lines as a group (mean AUC, VP.MCC.avg); type: cell-based, human
[15] = tested on: CRL-7250 cells; assay: qHTS cell viability (CellTiter-Glo, 72 h; primary screen), control cell line; type: cell-based
[16] = NPC library, qHTS dose-response AUC, UISO
[17] = NPC library, qHTS dose-response AUC, MCC13
[18] = NPC library, mean AUC of VN-MCC cell lines
[19] = NPC library, therapeutic window: Control avg AUC minus VN-MCC avg AUC
[20] = NPC library, therapeutic window: Control avg AUC minus MCC avg AUC
[21] = NPC library, qHTS dose-response AUC, HACAT control
[22] = NPC library, mean AUC of six MCC cell lines
[23] = NPC library, mean AUC of control cell lines
[24] = NPC library, qHTS dose-response AUC, MKL1
[25] = NPC library, qHTS dose-response AUC, WAGA
[26] = NPC library, qHTS dose-response AUC, MKL2
[27] = NPC library; qHTS dose-response AUC, HEK293T control
[28] = NPC library; qHTS dose-response AUC, MCC26
[29] = NPC library, qHTS dose-response AUC, NIH3T3 control
[30] = NPC library, mean AUC of VP-MCC cell lines
[31] = NPC library, therapeutic window: Control avg AUC minus VP-MCC avg AUC
[32] = NPC library, qHTS dose-response AUC, CRL7250 control

| SMILES | UISO_AUC [1] | MCC13_AUC [2] | Control-VN-MCC [3] | UISO_AUC [1, 16] | MCC13_AUC [2, 17] | VN-MCC_Avg_AUC [3, 18] | Control-VN-MCC [3, 19] | Control-MCC [4, 20] | HACAT_AUC [5, 21] | MCC_Avg_AUC [6, 22] | Control_Avg_AUC [7, 23] | MKL1_AUC [8, 24] | WAGA_AUC [9, 25] | MKL2_AUC [10, 26] | HEK293T_AUC [11, 27] | MCC26_AUC [12, 28] | NIH3T3_AUC [13, 29] | VP-MCC_Avg_AUC [14, 30] | Control-VP-MCC [14, 31] | CRL7250_AUC [15, 32] | further results |
| --- | --- | --- | --- | --- | --- | --- | --- | --- | --- | --- | --- | --- | --- | --- | --- | --- | --- | --- | --- | --- | --- |
| CCCN(CCC)CCc1c[nH]c2ccccc12.Cl [N,N-Dipropyltryptamine hydrochloride] | 424.523 | 455.096 | 47.3665 |  |  |  |  |  |  |  |  |  |  |  |  |  |  |  |  |  | VN-MCC_Avg_AUC [3]: 431.8; Control-MCC [4]: 58.5875; HACAT_AUC [5]: 490.19; MCC_Avg_AUC [6]: 420.579; Control_Avg_AUC [7]: 479.166; MKL1_AUC [8]: 391.099; WAGA_AUC [9]: 434.773; MKL2_AUC [10]: 402.2; HEK293T_AUC [11]: 447.306; MCC26_AUC [12]: 415.779; NIH3T3_AUC [13]: 481.316; Control-VP-MCC [14]: 69.8085; VP-MCC_Avg_AUC [14]: 409.358; CRL7250_AUC [15]: 497.853 |
| CCN(CC)CCc1c[nH]c2ccccc12.O=C(O)/C=C/C(=O)O [N,N-Diethyltryptamine fumarate] | 405.6 | 439.565 | 56.4273 |  |  |  |  |  |  |  |  |  |  |  |  |  |  |  |  |  | VN-MCC_Avg_AUC [3]: 415.93; Control-MCC [4]: 41.0728; HACAT_AUC [5]: 490.224 and 490.225; MCC_Avg_AUC [6]: 431.284; Control_Avg_AUC [7]: 472.357; MKL1_AUC [8]: 443.844; WAGA_AUC [9]: 448.87 and 448.871; MKL2_AUC [10]: 447.202; HEK293T_AUC [11]: 459.326; MCC26_AUC [12]: 402.623; NIH3T3_AUC [13]: 478.712; Control-VP-MCC [14]: 25.7182; VP-MCC_Avg_AUC [14]: 446.639; CRL7250_AUC [15]: 461.166 |
| N=C(N)NC(=O)c1nc(Cl)c(N)nc1N [Amiloride] |  |  |  | 438.294 | 460.482 | 444.942 | 44.5863 | 53.0271 | 483.146 | 436.501 | 489.528 | 439.734 | 426.991 | 417.455 | 497.776 | 436.049 | 492.231 | 428.06 | 61.468 | 484.959 |  |
| Clc1ccc(C(Cn2ccnc2)OCc2ccsc2Cl)c(Cl)c1 (stereo not shown) [Tioconazole] |  |  |  | 437.585 | 438.775 | 459.387 | 8.311 | 97.8731 | 488.14 | 369.824 | 467.697 | 310.311 | 248.268 | 282.208 | 456.797 | 501.8 | 445.245 | 280.262 | 187.435 | 480.608 |  |
| C#C[C@]1(OC(C)=O)CC[C@H]2[C@@H]3CCC4=CC(=NO)CC[C@@H]4[C@H]3CC[C@@]21CC (mixture of isomers) [Norgestimate] |  |  |  | 417.397 | 443.22 | 418.896 | 41.6867 | 51.4735 | 469.318 | 409.109 | 460.583 | 398.179 | 384.002 | 415.787 | 418.545 | 396.073 | 462.903 | 399.323 | 61.2604 | 491.565 | Control-VN-MCC ([3]; Control AUC minus VN-MCC AUC): 41.6867; MCC_Avg_AUC ([6]; NPC library, mean AUC of all 6 MCC cell lines): 409.11; HEK293T_AUC ([11]; NPC library, qHTS dose-response AUC, HEK293T control): 418.546; MCC26_AUC ([12]; NPC library, qHTS dose-response AUC, MCC26): 396.072; Control-VP-MCC ([14]; Control AUC minus VP-MCC AUC): 61.2604 |
| CC[N+](CC)(CC)CCOc1ccc(/C=C/c2ccccc2)cc1 [Stilonium iodide] | 334.732 | 466.903 | -18.2672 |  |  |  |  |  |  |  |  |  |  |  |  |  |  |  |  |  | VN-MCC_Avg_AUC [3]: 401.249; Control-MCC [4]: 21.0388; HACAT_AUC [5]: 372.384; MCC_Avg_AUC [6]: 361.943; Control_Avg_AUC [7]: 382.981; MKL1_AUC [8]: 307.411; WAGA_AUC [9]: 348.194; MKL2_AUC [10]: 312.305; HEK293T_AUC [11]: 375.842; MCC26_AUC [12]: 402.111; NIH3T3_AUC [13]: 427.937; Control-VP-MCC [14]: 60.3449; VP-MCC_Avg_AUC [14]: 322.637; CRL7250_AUC [15]: 355.764 |
| [H]/N=C(/NCCCCC)N/N=C/c1c[nH]c2ccc(OC)cc12 [Tegaserod] |  |  |  | 401.587 | 473.827 | 434.493 | -14.2555 | 71.3268 | 397.896 | 348.911 | 420.238 | 250.061 | 279.713 | 260.213 | 405.853 | 428.067 | 444.55 | 263.329 | 156.909 | 432.653 |  |
| Oc1ccc(O)cc1 [Hydroquinone] |  |  |  | 450.538 | 503.441 | 488.855 | -1.637 | 45.1616 | 491.952 | 442.057 | 487.218 | 415.173 | 370.144 | 400.457 | 480.593 | 512.585 | 488.45 | 395.258 | 91.96 | 487.877 | UISO_AUC ([1]; area under the dose-response curve, UISO cells, AUC<450 = reduced viability): 450.538; MCC13_AUC ([2]; area under the dose-response curve, MCC13 cells, AUC<450 = reduced viability): 503.441; HACAT_AUC ([5]; area under the dose-response curve, HACAT control cells, AUC<450 = reduced viability): 491.952; MKL1_AUC ([8]; area under the dose-response curve, MKL-1 cells, AUC<450 = reduced viability): 415.173; WAGA_AUC ([9]; area under the dose-response curve, WAGA cells, AUC<450 = reduced viability): 370.144; MKL2_AUC ([10]; area under the dose-response curve, MKL-2 cells, AUC<450 = reduced viability): 400.457; HEK293T_AUC ([11]; area under the dose-response curve, HEK293T control cells; AUC<450 = reduced viability): 480.593; MCC26_AUC ([12]; area under the dose-response curve, MCC26 cells; AUC<450 = reduced viability): 512.585; NIH3T3_AUC ([13]; area under the dose-response curve, NIH3T3 control cells, AUC<450 = reduced viability): 488.45; CRL7250_AUC ([15]; area under the dose-response curve, CRL7250 control cells, AUC<450 = reduced viability): 487.877 |
| N=C(N)NN=C(/C=C/c1ccc([N+](=O)[O-])o1)/C=C/c1ccc([N+](=O)[O-])o1 [Nitrovin] |  |  |  | 349.388 | 392.271 | 384.368 | -13.9562 | 44.9672 | 415.924 | 325.445 | 370.412 | 291.263 | 248.028 | 260.273 | 356.338 | 411.446 | 385.648 | 266.521 | 103.891 | 323.737 |  |
| CC(=O)OC1(c2ccccc2)CCN(CCc2ccccc2)CC1 | 389.875 | 419.397 | 54.768 |  |  |  |  |  |  |  |  |  |  |  |  |  |  |  |  |  | VN-MCC_Avg_AUC [3]: 409.79; Control-MCC [4]: 68.5641; HACAT_AUC [5]: 477.567; MCC_Avg_AUC [6]: 395.993 and 395.994; Control_Avg_AUC [7]: 464.558; MKL1_AUC [8]: 375.288; WAGA_AUC [9]: 388.929; MKL2_AUC [10]: 382.375; HEK293T_AUC [11]: 449.554; MCC26_AUC [12]: 420.097; NIH3T3_AUC [13]: 473.448; Control-VP-MCC [14]: 82.3602; VP-MCC_Avg_AUC [14]: 382.197; CRL7250_AUC [15]: 457.662 |
| C=CCC1([C@H](C)CCC)C(=O)NC(=O)NC1=O [S-(-)-Secobarbital] | 438.072 | 460.136 | 48.3879 |  |  |  |  |  |  |  |  |  |  |  |  |  |  |  |  |  | VN-MCC_Avg_AUC [3]: 437.495; Control-MCC [4]: 49.6701; HACAT_AUC [5]: 491.817; MCC_Avg_AUC [6]: 436.213; Control_Avg_AUC [7]: 485.883; MKL1_AUC [8]: 441.594; WAGA_AUC [9]: 434.137; MKL2_AUC [10]: 429.062; HEK293T_AUC [11]: 485.529; MCC26_AUC [12]: 414.278; NIH3T3_AUC [13]: 473.981; Control-VP-MCC [14]: 50.9524; VP-MCC_Avg_AUC [14]: 434.931; CRL7250_AUC [15]: 492.207 |
